Measured values published in the OligoGym collection.
Where “and” joins values, the source holds several entries; their conditions need not be identical. Equal entries are not always repeated. After the bases stand the sugars from the 5' end (letter, count) and the backbone: PS all phosphorothioate, else s phosphorothioate and o phosphodiester by linkage. Methylation of C is not given here. e = 2'-O-(2-methoxyethyl) (MOE); k = constrained ethyl (cEt); d = 2'-deoxy (DNA)

Molecular target: IRF4
Details: ASO

Sequence | target mRNA inhibition (SK-MEL-28, 4 µM) [%] | target mRNA inhibition (MM.1R, 1 µM) | further results
ATCTTCACTGTTAGCT (sugars k3 d10 k3, PS) | 74 |  | 
GTGATGTCAGGTTTTC (sugars kddddddddddkekek, PS) |  | 22% | 
CTATAGTGTTCCAGGA (sugars k3 d9 k3 e1, PS) |  | 31% | 
AAGCTTGATAAAGGCT (sugars k3 d10 k3, PS) |  | 3% | 
ATTCCAAACCTTAAGC (sugars k3 d10 k3, PS) |  | -1% | 
ATCCACAATCAGCAAG (sugars k3 d10 k3, PS) | 51 |  | 
ATGCAAGCCCGTTAAT (sugars k3 d10 k3, PS) | 4 |  | 
CCTCAACCGCTGAACT (sugars k3 d10 k3, PS) | 30 |  | 
GAGATAGGAAGCACTG (sugars k3 d10 k3, PS) | 48 |  | 
TAGTAAATATCCTGTA (sugars k3 d10 k3, PS) | 42 |  | 
CACGAGGAAGCATAGA (sugars k3 d10 k3, PS) | 56 |  | 
TGTAGTATGAGAAACG (sugars kkdddddddddkekek, PS) |  | 12% | 
GGCTCATGGACATCTG (sugars k3 d10 k3, PS) | 36 |  | 
CGTCAAGGAGGCCTGG (sugars k3 d10 k3, PS) | 43 |  | 
TGGGTATTTATAACCG (sugars k3 d10 k3, PS) |  | 4% | 
TTCAGAGTCCTGAGAC (sugars k3 d10 k3, PS) | 46 |  | 
CCACGAAGATTCAAAA (sugars k3 d10 k3, PS) |  | -7% | 
TCACGAGGTTGCCGAG (sugars k3 d10 k3, PS) | 62 |  | 
AAGCAAGAGCTTACTG (sugars k3 d10 k3, PS) | 14 |  | 
AGTACGAGCACATGTC (sugars k3 d10 k3, PS) | 34 |  | 
CGTGAAACAGCAGTTC (sugars k3 d10 k3, PS) | 40 |  | 
TACTGTTACCGATGCT (sugars kkdddddddddekeke, PS) |  | 22% and 14% | 
GTTAGCTACAAAGAGC (sugars k3 d10 k3, PS) | 41 |  | 
CCTCGCTCAAAGACCA (sugars k3 d10 k3, PS) | 50 |  | 
GTACTTGCCGCTGTCG (sugars k4 d8 k4, PS) | 36 |  | 

Sequence | target mRNA inhibition (SK-MEL-28, 4 µM) [%] | target mRNA inhibition (MM.1R, 1 µM) | further results
TCTATAGTGTTCCAGG (sugars k3 d10 k3, PS) | 80 |  | 
AATGTGTATTACTCTT (sugars kdddddddddkekeke, PS) |  | 12% and 15% | 
GTTTGCCATGGTATTT (sugars k3 d10 k3, PS) |  | 41% and 50% | 
AAGTGTCTAAAGTCCC (sugars kkdddddddddkekek, PS) |  | 12% and 22% | 
GTGCTCTTACAGCCTC (sugars k3 d10 k3, PS) |  | -15% | 
CGCAGAGCCAGTAGGG (sugars k3 d10 k3, PS) | 67 |  | target mRNA inhibition (SK-MEL-28, 0.185 µM): 16% and 4% and 12%; target mRNA inhibition (SK-MEL-28, 5 µM): 56% and 59% and 77%; target mRNA inhibition (SK-MEL-28, 15 µM): 81% and 82% and 91%
AGGCACATCAATGTTT (sugars kkddddddddddkeke, PS) |  | 16% and 14% | 
TGTGAACATCTCAGAT (sugars k3 d10 k3, PS) | 12 |  | 
TACTTAGACATTACTA (sugars k3 d10 k3, PS) | 39 |  | 
CAAGCAGTGATGTCAG (sugars k3 d10 k3, PS) |  | 60% and 51% | 
GCCCAATACATATCCA (sugars k3 d10 k3, PS) | 58 |  | 
TTGGTTGGCTGGTCTT (sugars kkdddddddddekeke, PS) |  | 34% | 
GCAGTGATGTCAGGTT (sugars e1 k2 d9 k2 e2, PS) |  | 56% | target mRNA inhibition (MM.1R, 0.074 µM): 15%; target mRNA inhibition (MM.1R, 0.222 µM): 33%; target mRNA inhibition (MM.1R, 0.666 µM): 52%; target mRNA inhibition (MM.1R, 2 µM): 75%
TGCTTTGGGCACCAAA (sugars k3 d10 k3, PS) | 52 |  | 
TGTAGTATGAGAAACG (sugars kddddddddddkekek, PS) |  | 7% | 
ATTCTCCTCAACCGCT (sugars k3 d10 k3, PS) | 35 |  | 
TTCATGTAAAGTCTGC (sugars k2 d9 e3 k2, PS) |  | 27% and 35% | 
TCAACCTGGAAGGATG (sugars k3 d10 k3, PS) | 30 |  | 
GTTCAGAAACCCTCAT (sugars k3 d10 k3, PS) | 13 |  | 
CTGAAAGCGAGTCAGA (sugars k3 d10 k3, PS) |  | 6% | 
GGGAATCCTTAATTAT (sugars k3 d10 k3, PS) | 12 |  | 
TTGATGTGATAGCTGA (sugars kkddddddddddkeke, PS) |  | 11% | 
CTGCCAAGTTGAAGAC (sugars k3 d10 k3, PS) |  | 33% | 
GCTGAACTGTGTAATG (sugars k3 d10 k3, PS) | 58 |  | 
CGGGAGATAAAGAACA (sugars k3 d10 k3, PS) | 31 |  | 

Sequence | target mRNA inhibition (SK-MEL-28, 4 µM) [%] | target mRNA inhibition (MM.1R, 1 µM) | further results
AATCACGAGGTTGCCG (sugars k3 d10 k3, PS) |  | -6% | 
GCATAGTGATGAGATA (sugars k3 d10 k3, PS) | 59 |  | 
TCAACAGCAGGTTTTG (sugars k3 d10 k3, PS) | 41 |  | 
GGAAAGAGGCACCCTC (sugars k3 d10 k3, PS) | 28 |  | 
CTGTTACCGATGCTTC (sugars kddddddddddkekek, PS) |  | 36% and 26% | 
GGGATTATATACTGGT (sugars kkdddddddddekeke, PS) |  | 34% | 
TACCATGCATAGTGAT (sugars k3 d10 k3, PS) | 44 |  | 
AGAAACGAGTTGACAC (sugars k3 d10 k3, PS) | 15 |  | 
GAAGTTTACACTGGAT (sugars k2 d9 e3 k2, PS) |  | 28% | 
GTTGGCTGGTCTTTGT (sugars kkddddddddddkeke, PS) |  | 25% | 
TCATACCCTGGATCAC (sugars k3 d10 k3, PS) | 43 |  | 
GTGGGAGTCGGAGCTC (sugars k3 d10 k3, PS) | 17 |  | 
GTGTTTGCCATGGTAT (sugars k3 d10 k3, PS) |  | 57% and 40% | target mRNA inhibition (MM.1R, 0.0625 µM): -1%; target mRNA inhibition (MM.1R, 0.25 µM): 13%; target mRNA inhibition (MM.1R, 4 µM): 70%
TCAAACTATAATTGGC (sugars k3 d10 k3, PS) | 74 |  | 
TCACCTGGCAACCTGC (sugars k4 d8 k4, PS) | 28 |  | 
ACGGAAGTTTACACTG (sugars k2 d9 e3 k2, PS) |  | 15% | 
CTCTATAGTGTTCCAG (sugars k3 d9 k3 e1, PS) |  | 65% | target mRNA inhibition (MM.1R, 0.074 µM): 14%; target mRNA inhibition (MM.1R, 0.222 µM): 30%; target mRNA inhibition (MM.1R, 0.666 µM): 54%; target mRNA inhibition (MM.1R, 2 µM): 76%
TGATAGCTGAGCTGAT (sugars k2 d9 e3 k2, PS) |  | -2% | 
AGCCACTGGCGGAGCT (sugars k3 d10 k3, PS) | 38 |  | 
GGATGCCACCATCCCA (sugars k3 d10 k3, PS) | -5 |  | 
AGTGTCTAAAGTCCCA (sugars k2 d9 e3 k2, PS) |  | 26% and 12% | 
CACTACCTGCAGCCAA (sugars k3 d10 k3, PS) | 31 |  | 
TGGCACCAAAAGTACC (sugars k3 d10 k3, PS) | 34 |  | 
GGGTGGTAGAATGTGA (sugars k3 d10 k3, PS) |  | 33% | 
AATGTAGGGATACAGC (sugars k3 d10 k3, PS) | 62 |  | 
